Experiments:
[1] = target: metabotropic glutamate receptor (mGluR5) (Homo sapiens, UniProt P41594); experiment: Activity as mGluR5 modulator, test not specified
[2] = target: T1, transmembrane allosteric modulatory sites of mGluR5 receptors in cortical membranes (Rattus norvegicus, UniProt P31424); experiment: [^3H]-MPEP binding assay in rat cortical membranes; conditions: read-out: mGluR5_M_MPEP_r_CTX_IC50
T1 construct: from tissue; host or cells: rat brain cortex membranes
Experimental: Male Sprague-Dawley rats (200-250 g) are decapitated and their brains are removed rapidly. The cortex is dissected and homogenized in 20 volumes of ice-cold 0.32 M sucrose using a glass-Teflon homogenizer. The homogenate is centrifuged at 1000×g for 10 minutes. The pellet is discarded and the supernatant centrifuged at 20,000×g for 20 minutes. The resulting pellet is re-suspended in 20 volumes of distilled water and centrifuged for 20 minutes at 8000×g. Then the supernatant and the buffy coat are centrifuged at 48,000×g for 20 minutes in the presence of 50 mM Tris-HCl, pH 8.0. The pellet is then re-suspended and centrifuged two to three more times at 48,000×g for 20 minutes in the presence of 50 mM Tris-HCl, pH 8.0. All centrifugation steps are carried out at 4° C. After resuspension in 5 volumes of 50 mM Tris-HCl, pH 8.0 the membrane suspension is frozen rapidly at −80° C.
On the day of assay the membranes are thawed and washed four times by resuspension in 50 mM Tris-HCl, pH 8.0 and centrifugation at 48,000×g for 20 minutes and finally re-suspended in 50 mM Tris-HCl, pH 7.4. The amount of protein in the final membrane preparation (500-700 μg/ml) is determined according to the method of Lowry (Lowry O. H. et al. 1951. J. Biol. Chem. 193, 256-275).
Alternatively, assays are performed with [^3H]-MMPEP (2-(3-methoxyphenylethynyl)-6-methylpyridine hydrochloride) as radioligand. The incubations are continued at room temperature for 60 minutes (equilibrium is achieved under the conditions used). […] Incubations are terminated using a Millipore filter system. The samples are rinsed twice with 4 ml of ice-cold assay buffer over glass fibre filters (Schleicher & Schuell, Germany) under a constant vacuum. Following separation and rinse, the filters are placed into scintillation liquid (5 ml Ultima Gold, Perkin Elmer, Germany) and radioactivity retained on the filters is determined with a conventional liquid scintillation counter (Canberra Packard, Germany).

T1 sequence (P31424 21-1203): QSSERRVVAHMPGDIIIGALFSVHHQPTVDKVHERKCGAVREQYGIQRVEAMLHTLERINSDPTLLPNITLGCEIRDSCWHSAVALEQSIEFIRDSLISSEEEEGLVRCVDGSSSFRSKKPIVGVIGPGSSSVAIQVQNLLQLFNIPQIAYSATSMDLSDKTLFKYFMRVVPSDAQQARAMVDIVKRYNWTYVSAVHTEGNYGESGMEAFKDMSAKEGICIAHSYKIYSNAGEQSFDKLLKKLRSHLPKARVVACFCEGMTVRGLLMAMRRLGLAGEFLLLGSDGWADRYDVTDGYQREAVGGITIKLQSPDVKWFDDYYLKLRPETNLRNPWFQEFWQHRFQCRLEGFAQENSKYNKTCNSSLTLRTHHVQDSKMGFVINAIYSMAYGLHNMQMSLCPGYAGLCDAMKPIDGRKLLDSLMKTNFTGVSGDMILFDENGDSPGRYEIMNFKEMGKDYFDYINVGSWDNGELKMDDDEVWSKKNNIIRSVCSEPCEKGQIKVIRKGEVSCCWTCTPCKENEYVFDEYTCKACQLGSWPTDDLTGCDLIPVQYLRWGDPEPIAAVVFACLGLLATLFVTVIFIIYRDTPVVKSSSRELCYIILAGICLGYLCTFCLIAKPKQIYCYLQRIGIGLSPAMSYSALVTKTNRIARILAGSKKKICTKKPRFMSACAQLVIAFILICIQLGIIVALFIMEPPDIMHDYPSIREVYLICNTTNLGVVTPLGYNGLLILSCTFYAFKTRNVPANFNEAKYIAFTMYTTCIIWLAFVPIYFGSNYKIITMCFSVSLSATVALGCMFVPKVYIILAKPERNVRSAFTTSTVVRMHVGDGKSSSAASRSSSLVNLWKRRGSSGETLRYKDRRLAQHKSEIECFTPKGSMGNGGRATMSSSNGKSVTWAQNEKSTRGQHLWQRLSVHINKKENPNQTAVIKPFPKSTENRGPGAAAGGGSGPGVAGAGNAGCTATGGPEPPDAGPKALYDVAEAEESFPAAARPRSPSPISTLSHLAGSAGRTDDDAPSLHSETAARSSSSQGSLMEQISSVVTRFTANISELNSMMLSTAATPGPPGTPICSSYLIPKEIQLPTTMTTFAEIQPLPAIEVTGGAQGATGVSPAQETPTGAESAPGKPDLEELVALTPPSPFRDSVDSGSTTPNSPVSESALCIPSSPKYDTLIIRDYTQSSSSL
Chain of metabotropic glutamate receptor (mGluR5) (P41594 21-1212): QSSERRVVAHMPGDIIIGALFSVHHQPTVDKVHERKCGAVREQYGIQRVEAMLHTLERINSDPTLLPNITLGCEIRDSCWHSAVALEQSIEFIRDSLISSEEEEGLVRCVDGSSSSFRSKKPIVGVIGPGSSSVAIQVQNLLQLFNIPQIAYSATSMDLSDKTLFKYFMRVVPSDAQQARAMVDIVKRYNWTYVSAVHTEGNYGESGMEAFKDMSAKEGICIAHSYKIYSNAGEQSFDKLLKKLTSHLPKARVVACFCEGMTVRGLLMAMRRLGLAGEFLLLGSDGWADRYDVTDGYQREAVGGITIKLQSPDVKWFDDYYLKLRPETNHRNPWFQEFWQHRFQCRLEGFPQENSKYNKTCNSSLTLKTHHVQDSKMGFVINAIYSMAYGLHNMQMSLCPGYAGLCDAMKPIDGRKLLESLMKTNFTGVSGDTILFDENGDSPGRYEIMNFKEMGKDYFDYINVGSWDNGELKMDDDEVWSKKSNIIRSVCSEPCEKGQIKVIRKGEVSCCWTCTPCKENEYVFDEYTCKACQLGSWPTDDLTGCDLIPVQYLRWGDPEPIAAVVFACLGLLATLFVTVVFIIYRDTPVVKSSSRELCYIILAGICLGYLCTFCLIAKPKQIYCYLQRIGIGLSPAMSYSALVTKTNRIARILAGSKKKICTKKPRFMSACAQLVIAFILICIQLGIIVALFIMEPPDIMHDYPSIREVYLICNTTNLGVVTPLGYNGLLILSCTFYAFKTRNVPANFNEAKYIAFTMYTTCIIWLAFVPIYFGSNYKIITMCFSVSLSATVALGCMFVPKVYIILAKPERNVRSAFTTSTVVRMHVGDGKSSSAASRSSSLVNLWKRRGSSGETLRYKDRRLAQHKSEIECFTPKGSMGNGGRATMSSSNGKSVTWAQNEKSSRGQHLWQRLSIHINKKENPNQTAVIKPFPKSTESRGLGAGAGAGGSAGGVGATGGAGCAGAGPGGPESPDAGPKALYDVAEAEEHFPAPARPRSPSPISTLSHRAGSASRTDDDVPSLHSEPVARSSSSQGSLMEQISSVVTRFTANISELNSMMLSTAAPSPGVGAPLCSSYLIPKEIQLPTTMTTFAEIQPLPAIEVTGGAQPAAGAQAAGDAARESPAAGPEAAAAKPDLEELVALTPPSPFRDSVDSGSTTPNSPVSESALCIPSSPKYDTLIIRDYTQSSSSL

In the case of O=C(c1cc2ncc(Br)cn2n1)N1CCCCC1 [Example B308, (6-Bromopyrazolo[1,5-a]pyrimidin-2-yl)-piperidin-1-yl-methanone], the “activity as metabotropic glutamate receptor (mGluR5) modulator” value [1] is reported as “no particular activity”.

In the case of O=C(c1cc2ncc(Br)cn2n1)N1CCOCC1 [Example B310, (6-Bromopyrazolo[1,5-a]pyrimidin-2-yl)-morpholin-4-yl-methanone], the “activity as metabotropic glutamate receptor (mGluR5) modulator” value [1] is reported as “no particular activity”.

CC1c2cc(F)ccc2CCN1C(=O)c1cc2ncc(Br)cn2n1 (centres unmarked) [drawing 454, (6-Bromo-pyrazolo[1,5-a]pyrimidin-2-yl)-(7-fluoro-1-methyl-3,4-dihydro-1H-isoquinolin-2-yl)-methanone] gave an IC50 [2] of 30 nM.

Compound CC1c2cccc(F)c2CCN1C(=O)c1cc2ncc(Br)cn2n1 (centres unmarked) [drawing 455, (6-Bromo-pyrazolo[1,5-a]pyrimidin-2-yl)-(5-fluoro-1-methyl-3,4-dihydro-1H-isoquinolin-2-yl)-methanone] has an IC50 [2] of 10 nM.

CC1c2ccc(F)cc2CCN1C(=O)c1cc2ncc(Cl)cn2n1 (centres unmarked) [drawing 456, (6-Chloro-pyrazolo[1,5-a]pyrimidin-2-yl)-(6-fluoro-1-methyl-3,4-dihydro-1H-isoquinolin-2-yl)-methanone] showed an IC50 [2] of 40 nM.

CC1CN(C(=O)c2cc3ncc(Cl)cn3n2)C(C)c2ccccc21 (centres unmarked) [drawing 457, (6-Chloro-pyrazolo[1,5-a]pyrimidin-2-yl)-(1,4-dimethyl-3,4-dihydro-1H-isoquinolin-2-yl)-methanone] showed an IC50 [2] of 118 nM.

Compound CC1CN(C(=O)c2cc3ncc(Br)cn3n2)C(C)c2ccccc21 (centres unmarked) [drawing 458, (6-Bromo-pyrazolo[1,5-a]pyrimidin-2-yl)-(1,4-dimethyl-3,4-dihydro-1H-isoquinolin-2-yl)-methanone] has an IC50 [2] of 91 nM.

COc1ccc2c(c1)CCN(C(=O)c1cc3ncc(Br)cn3n1)C2C (centres unmarked) [drawing 459, (6-Bromo-pyrazolo[1,5-a]pyrimidin-2-yl)-(6-methoxy-1-methyl-3,4-dihydro-1H-isoquinolin-2-yl)-methanone] showed an IC50 [2] of 20 nM.

COc1ccc2c(c1)CCN(C(=O)c1cc3ncc(Cl)cn3n1)C2C (centres unmarked) [drawing 460, (6-Chloro-pyrazolo[1,5-a]pyrimidin-2-yl)-(6-methoxy-1-methyl-3,4-dihydro-1H-isoquinolin-2-yl)-methanone] showed an IC50 [2] of 27 nM.

In the case of CC1c2cccc(Br)c2CCN1C(=O)c1cc2ncc(Cl)cn2n1 (centres unmarked) [drawing 461, (5-Bromo-1-methyl-3,4-dihydro-1H-isoquinolin-2-yl)-(6-chloro-pyrazolo[1,5-a]pyrimidin-2-yl)-methanone], the IC50 [2] is reported as 21 nM.

Work on O=C(c1cc2ncc(Cl)cn2n1)N1CCc2ncc(Br)cc2C1 [drawing 462, (3-Bromo-7,8-dihydro-5H-[1,6]naphthyridin-6-yl)-(6-chloro-pyrazolo[1,5-a]pyrimidin-2-yl)-methanone] yielded an IC50 [2] of 107 nM.
